From patent US8546371B2, “Nanoparticle formulated glycolipid antigens for immunotherapy” (Board of Regents, The University of Texas System, priority 2009, dated 2013)

Test system: NKT cells
Assay: Repeated in vivo NKT cell stimulation, serum IFN-γ by ELISA
Design: species or system C57BL/6 mice
Conditions: for IFN-γ (serum): 1 μg αGalCer i.v., bled 24 hours after treatment, mean ± SD of three mice
Protocol: Nanoparticle containing 1 μg alpha-galactosylceramide was injected to C57BL6 mice, with non-conjugated nanoparticles as negative control. In parallel, we studied soluble form of alpha-galactosylceramide.
C57/BL6 mice were purchased from the Jackson Laboratory (Bar Arbor, Me.) and housed in M.D. Anderson Cancer Center animal facilities under standard pathogen free conditions abiding institutional guidelines. 6 weeks old C57BL/6 mice were used for all experiments. 3 mice per group were used for each experiment. 1 μg alpha-galactosylceramide, or nanoparticle formulated alpha-galactosylceramide in 200 μL PBS was intravenously injected (through tail vein) to each mouse. Mice were treated every 10 days for 3 times. 200 μL of PBS/1% DMSO was used as control.
Mice were bled at 24 hours after each drug treatment. Serum IFN-γ was measured by ELISA using a kit from BD Biosciences (San Jose, Calif.).

CCCCCCCCCCCCCCCCCCCCCCCCCC(=O)N[C@@H](CO[C@H]1O[C@H](CO)[C@H](O)[C@H](O)[C@H]1O)[C@H](O)[C@H](O)CCCCCCCCCCCCCC [αGalCer, Alpha-galactosylceramide]
IFN-γ secretion upon repeated stimulation (anergy of NKT cells) (3 treatments every 10 days, i.v.): caused IFN-γ secretion only at the first treatment and failed to induce upon subsequent stimulations | IFN-γ (serum) (x1 injection): 2601 ± 257 pg/mL | IFN-γ (serum) (x2 injection (every 10 days)): 65 ± 2 pg/mL | IFN-γ (serum) (x3 injection (every 10 days)): 40 ± 11 pg/mL
